This assay has as its target T1, Cbp1 (c-di-GMP binding protein 1; PilZ domain containing chemoreceptor) (Azorhizobium caulinodans, UniProt A8II15).
T1 construct: gene AZC_3349; Cbp1 ORF with C-terminal 6×His tag, expressed in E. coli Top10
Briefly: ITC ([…] protein titrated with […] c-di-GMP); also protein thermal shift assay.

Broadly, the Kd is the constant that tells how readily two partners part at equilibrium.

T1 sequence (A8II15 1-581): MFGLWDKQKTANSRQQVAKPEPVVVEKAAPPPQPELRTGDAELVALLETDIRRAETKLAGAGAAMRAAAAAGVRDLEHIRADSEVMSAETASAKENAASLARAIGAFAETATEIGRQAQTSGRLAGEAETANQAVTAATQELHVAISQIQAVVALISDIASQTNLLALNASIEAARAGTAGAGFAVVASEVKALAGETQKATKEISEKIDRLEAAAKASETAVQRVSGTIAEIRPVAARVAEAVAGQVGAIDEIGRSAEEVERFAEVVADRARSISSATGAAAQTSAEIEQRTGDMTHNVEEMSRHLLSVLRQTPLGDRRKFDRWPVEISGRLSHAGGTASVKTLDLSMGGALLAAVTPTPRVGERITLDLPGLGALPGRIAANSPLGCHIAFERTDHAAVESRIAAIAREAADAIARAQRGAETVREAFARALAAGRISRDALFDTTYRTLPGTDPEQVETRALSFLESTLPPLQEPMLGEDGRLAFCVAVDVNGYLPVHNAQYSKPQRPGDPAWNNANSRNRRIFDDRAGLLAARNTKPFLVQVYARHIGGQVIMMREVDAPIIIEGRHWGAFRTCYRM

As to `Nc1nc2c(ncn2[C@@H]2O[C@@H]3CO[P@](=O)(O)O[C@H]4[C@@H](O)[C@H](n5cnc6c(=O)[nH]c(N)nc65)O[C@@H]4CO[P@](=O)(O)O[C@H]3[C@H]2O)c(=O)[nH]1` [c-di-GMP], the Kd was determined as 14.9 ± 1.6 µM.
